TGI and GI50 data for 16 compounds are collected here from PubChem BioAssay (NCI).

What all share (assay): inhibition of tumour cell growth, NCI panel, 48 h
For assay [1], the system named is SNB-78 CNS.
Assay [2] has as its system HCT-15 colon.
In assay [3] the test system is SW-620 colon.
Assay [4] deals with LXFL 529 NSCLC.
Assay [5] relates to DLD-1 colon.
The subject of assay [6] is NCI-H23 lung.
The test system of assay [7] is KM12 colon.
Assay [8] has as its system DMS 114 small cell lung.
The test system of assay [9] is OVCAR-3 ovarian.
The test system of assay [10] is RPMI-8226 leukemia.
Assay [11] has as its system SK-MEL-28 melanoma.
Assay [12] relates to PC-3 prostate.

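A five-concentration, 48-hour dose response in 96-well plates underlies each endpoint, interpolated linearly between surrounding concentrations. GI50 is the concentration that inhibits growth by half. TGI marks complete inhibition of growth.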

In the case of `O=c1[nH]c(=O)n(C2CC(O)C(CO)O2)cc1C#Cc1ccc(F)cc1` (stereo not given), the TGI in [1], in assay [2], in assay [3], in assay [4], in assay [5] and in assay [6] was more than 100 µM throughout. Also, the TGI in assay [7], in assay [8], in assay [9], in assay [10] and in assay [11] was more than 100 µM throughout.
`OC12c3ccccc3C3CCC4(OCCO4)C3C1c1ccccc12` (stereo not given): the TGI in assay [1], in assay [2], in assay [3], in assay [4], in assay [5] and in assay [6] was more than 100 µM throughout. Also, the TGI in assay [7], in assay [8], in assay [9], in assay [10] and in assay [11] was more than 100 µM each time.
In the case of `COc1ccc2[nH]c3c(C)cc([N+](=O)[O-])c(C)c3c2c1`, the TGI in [2] was more than 100 µM; in assay [3], more than 100 µM; in [4], more than 100 µM; in assay [5], 72.7 µM; in assay [6], more than 100 µM; in assay [7], 45.4 µM. Also, the TGI was 58.3 µM in assay [8], more than 100 µM in assay [9], 62.7 µM in [10] and 92.2 µM in assay [11].
For `COc1ccc2c(c1)c(=O)c1c(NCCN(C)C)ccc3nnn2c31`, the TGI came out at 21.8 µM in [1]; 16 µM in assay [2]; 9.11 µM in assay [3]; 18 µM in assay [4]; 20 µM in assay [5]; 13.1 µM in assay [6]. Moreover, the TGI in [7] was found to be 6.03 µM; in [8], 19.4 µM; in assay [9], 19.6 µM; in [10], 6.13 µM; in assay [11], 18.8 µM.
`CC(CN(C)C)C(=O)c1ccccc1` (stereo not given): the TGI in assay [1] was more than 64 µM; in assay [2] it was 33.4 µM; in assay [3], 27 µM; in [4], 39.8 µM; in assay [5], 32.6 µM; in assay [6], 68 µM. Moreover, the TGI is more than 51.5 µM in [7]; more than 57.8 µM in assay [8]; 97.8 µM in assay [9]; 19.8 µM in assay [10]; more than 56.6 µM in assay [11].
`C#CC1(O)CCC2[C@@H]3CCc4cc(Oc5nc(F)nc(-c6c7ccccc7cn6C)n5)ccc4C3CC[C@@]21C` (stereo not given in full): the TGI was more than 100 µM in assay [1]; more than 100 µM in assay [2]; more than 100 µM in assay [3]; more than 100 µM in assay [4]; more than 73.5 µM in [5]; more than 100 µM in [6]. For the same compound, the TGI in [7] was more than 100 µM; in assay [8] it was more than 53.2 µM; in [9] it was more than 100 µM; in assay [10], more than 70.7 µM; in assay [11], more than 100 µM.
Turning to `COc1ccc(C2C3CCCC(C3=O)C(c3ccc(OC)cc3)N2N=O)cc1` (stereo not given), the TGI in assay [1] is more than 100 µM; in [2] it was more than 100 µM; in assay [3], more than 100 µM; in [5] it was more than 100 µM; in [6] it was 44.5 µM; in assay [7], more than 74.1 µM. The TGI in assay [8] was 47.9 µM; in assay [9], 20 µM; in [10] it was 47.8 µM; in assay [11] it was more than 100 µM.
As for `O=C(OC/C=C1C=C(OC(=O)c2ccccc2)/C(=N/N(C(=O)c2ccccc2)c2ccccc2)O\1)c1ccccc1`, the TGI in assay [1] is 67.1 µM; in assay [2], 19.7 µM; in assay [3] it was 22.5 µM; in assay [4], 4.4 µM; in [5] it was 10.6 µM; in [7], 22.8 µM. Further, the TGI in [8] was found to be 28.3 µM; in [9], 21.5 µM; in assay [10], 7.24 µM. Further, the GI50 in assay [9] is 8.35 µM.
Consider `COc1ccc(C(=O)N/N=C/c2c(C)n(C)n(-c3ccccc3)c2=O)cc1`, for which the TGI in assay [1], in [2], in assay [3], in assay [4], in assay [5] and in assay [6] was more than 100 µM in each case. For the same compound, the TGI in assay [7], in [8], in assay [9], in [10] and in [11] was more than 100 µM throughout.
As for `CCn1c2c(c3ccccc31)C(c1ccccc1)CC1C(=O)N(c3ccccc3)C(=O)C21` (stereo not given), the TGI in assay [1], in assay [2], in assay [3], in [4], in assay [5] and in [6] was more than 100 µM each time. Besides, the TGI in assay [7], in [8], in assay [9] and in assay [11] was more than 100 µM throughout.
Consider `CCCN(CCC)c1c([N+](=O)[O-])cc(C(=O)N(CCO)CCO)cc1[N+](=O)[O-]`, for which the TGI in assay [1], in assay [2], in [4], in assay [5], in assay [6] and in assay [7] was more than 100 µM in each case. The TGI in assay [9], in assay [10] and in assay [11] was more than 100 µM throughout.
In the case of `CCOC(=O)C(C)c1nc2ccc(C(F)(F)F)cc2[nH]c1=O` (stereo not given), the TGI in [12], in [2], in assay [3], in assay [6], in assay [7] and in assay [9] was more than 100 µM throughout. Moreover, the TGI in [10] and in [11] was more than 100 µM in each case.
`CCN(CC)c1ccc2cc(C(=O)Nc3ccc(C)cc3)c(=N)oc2c1`: the TGI in assay [12], in assay [2], in assay [3], in assay [6], in assay [7] and in [9] was more than 100 µM throughout. For the same compound, the TGI in assay [10] and in assay [11] was more than 100 µM each time.
`NC1Cc2ccccc2OC1=O` (stereo not given): the TGI in [12], in [2], in [3], in [6], in assay [7] and in [9] was more than 100 µM each time. Further, the TGI in assay [10] and in assay [11] was more than 100 µM each time.
With `O=[N+]([O-])/C(C(Cl)=C(Cl)Cl)=C(\N1CCCCC1)n1nnc2ccccc21`, the TGI is 32.8 µM in assay [12]; 39.1 µM in [2]; 39.1 µM in assay [3]; 38.8 µM in assay [6]; more than 88 µM in assay [7]; 32.6 µM in assay [9]. Moreover, the TGI in assay [10] was found to be 38.6 µM; in [11] it was 48.3 µM.
As to `C=CCCCCOC1C=CC(O)C(CO)O1` (stereo not given), the TGI in [12], in assay [2], in [3], in assay [6], in [7] and in assay [9] was more than 100 µM in each case. The TGI in assay [10] and in [11] was more than 100 µM each time.
